Values of other authors, collected in publication PMC7395068, “The evolution of strategies to minimise the risk of human drug-induced liver injury (DILI) in drug discovery and development” (Archives of Toxicology, 2020).
Where two headings read alike, the source gives them in different places. Where a SMILES comes first, the peptide text is derived from it. Bridges are numbered along the chain shown (N, C = ends). [ ]: non-standard residue; d: D form. The star is where a group is joined. dPhe(4-NHCONH2) = NC(=O)Nc1ccc(C[C@@H](N)C(=O)O)cc1; Dihydroorotyl(S) = O=C1C[C@@H](C(=O)*)NC(=O)N1; d(hArg(Et2)) = CCN=C(NCC)NCCCC[C@@H](N)C(=O)O; hArg(Et2) = CCN=C(NCC)NCCCC[C@H](N)C(=O)O; dPhe(4-Cl) = N[C@H](Cc1ccc(Cl)cc1)C(=O)O; Phe(4-NH2) = Nc1ccc(C[C@H](N)C(=O)O)cc1; d2Nal = N[C@H](Cc1ccc2ccccc2c1)C(=O)O; Lys(iPr) = CC(C)NCCCC[C@H](N)C(=O)O; dCit = NC(=O)NCCC[C@@H](N)C(=O)O; hArg = N=C(N)NCCCC[C@H](N)C(=O)O; d3Pal = N[C@H](Cc1cccnc1)C(=O)O; Mpa = O=C(O)CCS

Details: cited from earlier work
[1] = binary in vivo human DILI call, ref Chen 2016
[2] = human DILI, LTKB DILIrank category, ref Chen 2016
[3] = binary in vivo DILI call given beside the severity category, ref Chen 2016
[4] = human DILI concern category (LTKB DILIrank), ref Chen 2016
[5] = LTKB DILIrank category, ref Chen 2016
[6] = binary human DILI assignment, ref Chen 2016
[7] = binary DILI call, ref Chen 2016

interferon alfacon-1
DILI +VE (5-8), DILI -VE (-4) (in vivo): +VE | DILI severity category (in vivo): vMost-DILI-Concern

hyaluronidase
DILI +VE (5-8), DILI -VE (-4) (in vivo): -VE | DILI severity category (in vivo): vNo-DILI-Concern

CC(=O)N[C@H](Cc1ccc2ccccc2c1)C(=O)N[C@H](Cc1ccc(Cl)cc1)C(=O)N[C@H](Cc1cccnc1)C(=O)N[C@@H](CO)C(=O)N[C@@H](Cc1ccc(NC(=O)[C@@H]2CC(=O)NC(=O)N2)cc1)C(=O)N[C@H](Cc1ccc(NC(N)=O)cc1)C(=O)N[C@@H](CC(C)C)C(=O)N[C@@H](CCCCNC(C)C)C(=O)N1CCC[C@H]1C(=O)N[C@H](C)C(N)=O [degarelix] (Ac-[d2Nal][dPhe(4-Cl)][d3Pal]S[Phe(4-NH2)](Dihydroorotyl(S))[dPhe(4-NHCONH2)]L[Lys(iPr)]P[dA]-NH2)
DILI +VE (5-8), DILI -VE (-4) [1]: -VE | DILI severity category [2]: Ambiguous DILI-concern

corticotropin (SYSMEHFRWGKPVGKKRRPVKVYPNGAEDESAEAFPLEF; Corticotropin; UniProt P01189 138-176, looked up)
DILI +VE (5-8), DILI -VE (-4) [1]: -VE | DILI severity category [2]: vNo-DILI-Concern

sucralfate
DILI +VE (5-8), DILI -VE (-4) [3]: -VE | DILI severity category [4]: vNo-DILI-Concern

O=S([O-])([O-])=S.[Na+].[Na+] [sodium thiosulfate]
DILI +VE (5-8), DILI -VE (-4) (in vivo): -VE | DILI severity category (in vivo): vNo-DILI-Concern

COc1cc2c(cc1OC)C1CC(=O)C(CC(C)C)CN1CC2 (stereo not shown) [tetrabenazine]
DILI +VE (5-8), DILI -VE (-4) [3]: -VE | DILI severity category [4]: Ambiguous DILI-concern

protamine sulfate
DILI +VE (5-8), DILI -VE (-4) (in vivo): -VE | DILI severity category (in vivo): vNo-DILI-Concern

COc1ccnc(C[S+]([O-])c2nc3ccc(OC(F)F)cc3[nH]2)c1OC (stereo not shown) [pantoprazole]
DILI +VE (5-8), DILI -VE (-4) [3]: +VE | DILI severity category [4]: vLess-DILI-Concern

CC(O)C(=O)[O-].[Na+] (stereo not shown) [sodium lactate]
DILI +VE (5-8), DILI -VE (-4) (in vivo): -VE | DILI severity category (in vivo): vNo-DILI-Concern

CC(C)[C@@H]1NC(=O)[C@H](CCCCN)NC(=O)[C@@H](Cc2c[nH]c3ccccc23)NC(=O)[C@H](Cc2ccc(O)cc2)NC(=O)[C@@H](NC(=O)[C@H](N)Cc2ccc3ccccc3c2)CSSC[C@@H](C(=O)N[C@H](C(N)=O)[C@@H](C)O)NC1=O [lanreotide acetate]
DILI +VE (5-8), DILI -VE (-4) [1]: -VE | DILI severity category [2]: Ambiguous DILI-concern

CCOC(Nc1ccc(C(=O)O)cc1)C(=O)c1ccc(-c2ccccc2)cc1 (stereo not shown) [xenazoic acid]
DILI severity category [5]: vMost-DILI-Concern | DILI +VE (5-8), DILI -VE (-4) [6]: +VE

CCCCc1ncc(/C=C(\Cc2cccs2)C(=O)O)n1Cc1ccc(C(=O)O)cc1 [eprosartan]
DILI +VE (5-8), DILI -VE (-4) [1]: -VE | DILI severity category [2]: Ambiguous DILI-concern

CCN(CC)CCOc1ccc(C(=C(Cl)c2ccccc2)c2ccccc2)cc1 [clomiphene]
DILI severity category [5]: vLess-DILI-Concern

CN1CCc2cccc3c2[C@H]1Cc1ccc(O)c(O)c1-3 [apomorphine]
DILI severity category [5]: vNo-DILI-Concern | DILI +VE (5-8), DILI -VE (-4) [7]: -VE

CN(C)CCC[C@@]1(c2ccc(F)cc2)OCc2cc(C#N)ccc21 [escitalopram]
DILI +VE (5-8), DILI -VE (-4) (in vivo): +VE | DILI severity category (in vivo): vLess-DILI-Concern

NC(CO)(CO)CO [tromethamine]
DILI severity category [5]: Ambiguous DILI-concern | DILI +VE (5-8), DILI -VE (-4) [6]: -VE

COc1cc2nc(N3CCN(C(=O)c4ccco4)CC3)nc(N)c2cc1OC [prazosin]
DILI +VE (5-8), DILI -VE (-4) (in vivo): -VE | DILI severity category (in vivo): Ambiguous DILI-concern

Cc1cccc([C@H](C)c2cnc[nH]2)c1C [dexmedetomidine]
DILI +VE (5-8), DILI -VE (-4) [1]: -VE | DILI severity category [2]: Ambiguous DILI-concern

urokinase
DILI +VE (5-8), DILI -VE (-4) (in vivo): -VE | DILI severity category (in vivo): vNo-DILI-Concern

verteporfin
DILI +VE (5-8), DILI -VE (-4) (in vivo): -VE | DILI severity category (in vivo): Ambiguous DILI-concern

CCN=C(NCC)NCCCC[C@H](NC(=O)[C@H](CC(C)C)NC(=O)[C@@H](CCCCNC(=NCC)NCC)NC(=O)[C@H](Cc1ccc(O)cc1)NC(=O)[C@H](CO)NC(=O)[C@@H](Cc1cccnc1)NC(=O)[C@@H](Cc1ccc(Cl)cc1)NC(=O)[C@@H](Cc1ccc2ccccc2c1)NC(C)=O)C(=O)N1CCC[C@H]1C(=O)N[C@H](C)C(N)=O [ganirelix acetate] (Ac-[d2Nal][dPhe(4-Cl)][d3Pal]SY[d(hArg(Et2))]L[hArg(Et2)]P[dA]-NH2)
DILI +VE (5-8), DILI -VE (-4) (in vivo): -VE | DILI severity category (in vivo): vNo-DILI-Concern

OCCOCCN1CCN(C2=Nc3ccccc3Sc3ccccc32)CC1 [quetiapine]
DILI +VE (5-8), DILI -VE (-4) [3]: +VE | DILI severity category [4]: vLess-DILI-Concern

CCOC(=O)[C@H](CCc1ccccc1)N[C@@H](C)C(=O)N1Cc2cc(OC)c(OC)cc2C[C@H]1C(=O)O [moexipril]
DILI +VE (5-8), DILI -VE (-4) [3]: -VE | DILI severity category [4]: Ambiguous DILI-concern

CC(C)(C(=O)c1cccnc1)c1cccnc1 [metyrapone]
DILI +VE (5-8), DILI -VE (-4) [3]: -VE | DILI severity category [4]: vNo-DILI-Concern

polyethylene glycol 3350
DILI +VE (5-8), DILI -VE (-4) (in vivo): -VE | DILI severity category (in vivo): vNo-DILI-Concern

C=C1/C(=C\C=C2/CCC[C@]3(C)[C@@H]([C@H](C)CCCC(C)(C)O)CC[C@@H]23)C[C@@H](O)C[C@@H]1O [calcitriol]
DILI severity category [5]: vNo-DILI-Concern | DILI +VE (5-8), DILI -VE (-4) [7]: -VE

CNCC[C@H](Oc1cccc2ccccc12)c1cccs1 [duloxetine]
DILI +VE (5-8), DILI -VE (-4) (in vivo): +VE | DILI severity category (in vivo): vMost-DILI-Concern

C=CC(N)CCC(=O)O (stereo not shown) [vigabatrin]
DILI severity category [5]: Ambiguous DILI-concern | DILI +VE (5-8), DILI -VE (-4) [6]: -VE

N=C(N)NCCCC[C@@H]1NC(=O)CCSSC[C@@H](C(N)=O)NC(=O)[C@@H]2CCCN2C(=O)[C@H](Cc2c[nH]c3ccccc23)NC(=O)[C@H](CC(=O)O)NC(=O)CNC1=O [eptifibatide] ([Mpa][hArg]GDWPC-NH2; disulfide 1-7)
DILI +VE (5-8), DILI -VE (-4) (in vivo): -VE | DILI severity category (in vivo): vNo-DILI-Concern

CN1CCN(C(c2ccccc2)c2ccc(Cl)cc2)CC1 (stereo not shown) [chlorcyclizine]
DILI severity category [5]: vLess-DILI-Concern

COc1ccc2c(C(=S)N(C)CC(=O)O)cccc2c1C(F)(F)F [tolrestat]
DILI +VE (5-8), DILI -VE (-4) [3]: +VE | DILI severity category [4]: vMost-DILI-Concern

agalsidase beta
DILI +VE (5-8), DILI -VE (-4) (in vivo): -VE | DILI severity category (in vivo): vNo-DILI-Concern

CC(C)[C@H](N)C(=O)OCCOCn1cnc2c(=O)[nH]c(N)nc21 [valaciclovir]
DILI severity category [5]: vLess-DILI-Concern | DILI +VE (5-8), DILI -VE (-4) [6]: +VE

Nc1nc(/C(=C/CC(=O)O)C(=O)N[C@@H]2C(=O)N3C(C(=O)O)=CCS[C@H]23)cs1 [ceftibuten]
DILI severity category [5]: Ambiguous DILI-concern | DILI +VE (5-8), DILI -VE (-4) [7]: -VE

C[C@H]1CN(C[C@H](Cc2ccccc2)C(=O)NCC(=O)O)CC[C@@]1(C)c1cccc(O)c1 [alvimopan]
DILI severity category [5]: vNo-DILI-Concern | DILI +VE (5-8), DILI -VE (-4) [7]: -VE

C#C[C@]1(O)CC[C@H]2[C@@H]3CCC4=CC(=O)CC[C@@H]4[C@H]3C(=C)C[C@@]21CC [etonogestrel]
DILI +VE (5-8), DILI -VE (-4) [1]: -VE | DILI severity category [2]: Ambiguous DILI-concern

CN(C)Cc1ccc(CSCCN/C(=C\[N+](=O)[O-])NCc2ccc3c(c2)OCO3)o1 [niperotidine]
DILI +VE (5-8), DILI -VE (-4) [3]: +VE | DILI severity category [4]: vMost-DILI-Concern

canakinumab
DILI +VE (5-8), DILI -VE (-4) (in vivo): +VE | DILI severity category (in vivo): vLess-DILI-Concern

C[C@@H](NCCCc1cccc(C(F)(F)F)c1)c1cccc2ccccc12 [cinacalcet]
DILI severity category [5]: vNo-DILI-Concern | DILI +VE (5-8), DILI -VE (-4) [7]: -VE

CC(=O)OCC(CCn1cnc2cnc(N)nc21)COC(C)=O [famciclovir]
DILI +VE (5-8), DILI -VE (-4) [1]: -VE | DILI severity category [2]: Ambiguous DILI-concern

CSCC[C@H](N)C(=O)O [l-methionine]
DILI +VE (5-8), DILI -VE (-4) [1]: -VE | DILI severity category [2]: vNo-DILI-Concern

CC(=O)N[C@H](Cc1ccc2ccccc2c1)C(=O)N[C@H](Cc1ccc(Cl)cc1)C(=O)N[C@H](Cc1cccnc1)C(=O)N[C@@H](CO)C(=O)N[C@@H](Cc1ccc(O)cc1)C(=O)N[C@H](CCCNC(N)=O)C(=O)N[C@@H](CC(C)C)C(=O)N[C@@H](CCCNC(=N)N)C(=O)N1CCC[C@H]1C(=O)N[C@H](C)C(N)=O [cetrorelix] (Ac-[d2Nal][dPhe(4-Cl)][d3Pal]SY[dCit]LRP[dA]-NH2)
DILI severity category [5]: Ambiguous DILI-concern | DILI +VE (5-8), DILI -VE (-4) [7]: -VE

NCCCCCC(=O)O [aminocaproic acid]
DILI severity category [5]: vNo-DILI-Concern | DILI +VE (5-8), DILI -VE (-4) [7]: -VE

CC1=NN(c2ccc(C)c(C)c2)C(=O)/C1=N\Nc1cccc(-c2cccc(C(=O)O)c2)c1O [eltrombopag olamine]
DILI +VE (5-8), DILI -VE (-4) [1]: +VE | DILI severity category [2]: vMost-DILI-Concern
